Data set [1] has as its system Rhipicephalus sanguineus. The data set can be described thus: Efficacy of spinosyn administered per os to dogs for treatment and control of Rhipicephalus sanguineus (tick comb counts). The conditions noted are these: oral daily dose increased from 2.5 to 5.0 mg/kg/day around day 30, days 37-50, FIG. 1. Format: in vivo. An excerpt: Efficacy of Spinosyn Administered per os, i.e. by Mouth, to Dogs for the Treatment and Control of Rhipicephalus sanguineus.
(§1) Methods: A pool of 40 dogs are to be screened before inclusion in this example by preliminarily infesting them with ˜100 unfed adult Ctenocephalidesfelis in order to produce a pool of dogs that can suitably sustain a reliable infestation rate of approximately 50% of live fleas over a 48-hour period. The dogs with the highest live flea counts are to be randomly allocated to 2 treatment groups (6 dogs per group) based on their pre-treatment flea counts from experimental infestations. The first treatment group is to be the control group and the second treatment group to be the test group.
(§2) The dogs are to be housed individually during the study period and are to be fed a commercial dry dog food ration with ad libitum access to water.
(§3) Each dog in the test group is to receive by mouth a liquid formulation of spinosyn preferably spinosad. The dosage of 2.5 mg/kg of the dog's weight is to be administered to the dogs on each of days 0-29 and the dosage of 5 mg/kg of the dog's weight is to be administered on days 30-50.
Dogs in the control group are not to receive spinosyn or any other tick control treatment. […]
Results: Referring now to FIG. 1. […] Percent Efficacy is determined according to the formula [AM ticks CONTROL−AM ticks TREATED]/AM ticks Control. […]

The nature of data set [2]: Average plasma concentration of spinosad in dogs after oral dosing. Type of data set: in vivo.
Text: as §1, §2, §3
Dogs in the control group are not to receive spinosyn or any other tick control treatment. Each dog in the test group is to be offered its daily ration (dry food) and the individual doses of liquid formulation are to be administered after the individual dog has eaten at least 25% of its total daily ration. After receiving the dose of spinosyn the dogs are to be allowed to continue eating. This mimics incorporating the spinosyn in feed. Each dog in the test group and the control group is to be experimentally infested with 50 unfed adult ticks (ca. 50% male/50% female) on test days 12, 19, 28, 35, 42, 49 and 56. Comb counts for attached live and moribund adult ticks are to be conducted on days 14, 21, 30, 37, 44, 51 and 58. Note that the dosage is to be increased at day 30 and the final dose is to be given on day 50.
Using the same study method as described above, blood is to be drawn at 72, 120, 168, 336, 504, 720 and 888 hours after the initial dose of spinosyn is administered. The average concentration of spinosyn in the blood for different dosage levels can then be determined.
Referring now to TABLE 1 and FIG. 2. Sample results are shown for the average plasma concentration of spinosad in a canine's blood (ng/mL) versus time in hours for different dosage levels of spinosad. By way of comparison, the average plasma concentration of spinosyn for a single-dose administration to be given monthly (squares) is shown with the average plasma concentration of spinosyn for a substantially daily dose of 2.5 mg/kg/day or 5.0 mg/kg/day (circles). The daily dose is increased from 2.5 mg/kg/day to 5.0 mg/kg/day at about hour 700 (around day 30).

Take spinosad: the “Percent Efficacy (reduction in attached live and moribund adult tick counts vs control)” value in data set [1] is “increase in efficacy is clear”. The “Average Plasma Concentration” value in data set [2] (oral daily 2.5-5.0 mg/kg/day spinosad (2.5 mg/kg/day phase), 72 hours) is listed as 221.50 ng/mL; in data set [2] (oral daily 2.5-5.0 mg/kg/day spinosad (2.5 mg/kg/day phase), 120 hours), 327.07 ng/mL; in data set [2] (oral daily 2.5-5.0 mg/kg/day spinosad (2.5 mg/kg/day phase), 168 hours), 455.78 ng/mL; in data set [2] (oral daily 2.5-5.0 mg/kg/day spinosad (2.5 mg/kg/day phase), 336 hours), 566.25 ng/mL; in data set [2] (oral daily 2.5-5.0 mg/kg/day spinosad (2.5 mg/kg/day phase), 504 hours) it was 668.77 ng/mL; in data set [2] (oral daily 2.5-5.0 mg/kg/day spinosad (5.0 mg/kg/day phase), 888 hours) it was 635.72 ng/mL. Further, the “Average Plasma Concentration” value in data set [2] (oral daily 2.5-5.0 mg/kg/day spinosad (5.0 mg/kg/day phase), 1056 hours) was 967.33 ng/mL; in data set [2] (oral daily 2.5-5.0 mg/kg/day spinosad (after final dose on day 50), 1392 hours), 761.45 ng/mL; in data set [2] (oral daily 2.5-5.0 mg/kg/day spinosad (dose raised to 5.0 mg/kg/day at about hour 700), 720 hours), 533.12 ng/mL.

For the origin of these results see US20230413818A1, “FEED AND METHODS FOR CONTROLLING TICK INFESTATIONS IN A MAMMAL” (In the Bowl Animal Health, Inc., priority 2021, published 2023).
